Measured values from patent publication US20240261224A1, “FORMULATION OF A PAN-JAK INHIBITOR” (KINASET THERAPEUTICS, INC., priority 2022, published 2024).

How the values were obtained:
[1] = 13-week inhalation toxicology study, rat model; format: in vivo; conditions: in vivo, inhaled or intranasal, rat; for AUC(0-t): AUC0-24
Procedure: (§1) Lactose/MgSt-based formulations of Compound I were evaluated during a 13-week inhalation toxicology study using a rat model.
(§2) The NOAEL was assigned to the highest dose study (11.9 mg/kg/day).

[2] = system: rat; experiment: 13-week inhalation toxicology study, rat model; format: in vivo; conditions: for AUC0-24: rat, in vivo, inhaled or intranasal
Procedure: as §1, §2

[3] = Phase 1 clinical trial adverse events summary (Part 1 healthy volunteers); format: in vivo, human; conditions: for Severe/serious TEAE, n (%) / Subjects with TEAE n, (%) / TEAE leading to discontinuation: Part 1 healthy volunteers
Procedure: (§3) A status summary of the phase 1 clinical trial recruitment is shown below in Table 18. Capsules filled with blend 2a were used to achieve a 0.6 mg target dose of Compound I (0.2 mg capsules×3). Capsules filled with blend 4 were used to achieve 2.0 mg, 4.0 mg, 6.0 mg, 8.0 mg, and 12.0 mg target doses of Compound I (2.0 mg capsule×1; 4.0 mg capsule×1; 2.0 mg capsules×3; 4.0 mg capsules×2; and 4.0 mg capsules×3, respectively). Twice daily dosing (BID) was achieved by repeating the preceding regime. For example, an 8.0 mg BID dosing regime is achieved by administering two doses of 4.0 mg capsules×2.

[4] = system: fractional exhaled nitric oxide (FeNO); experiment: Phase 1 Part 3: FeNO reduction in moderate to severe asthma on background ICS/LABA; format: in vivo, human; conditions: for Mean Placebo-Corrected % Change from Day 1 Pre-Dose or from Patient's Baseline (FeNO): 4 mg BID (n = 5), Baseline FeNO >35 ppb and blood eosinophils >250 cells/μL; for % subjects achieving FeNO level <25 ppb on Day 10: 4.0 mg BID
Procedure: as §3
Particular FeNO reduction data from FIG. 9 is highlighted below in Table 25. […] More specifically, subjects with Day 1 pre-dose FeNO levels between 33 and 280 ppb reported reductions greater than 20% by Day 10 and subjects with Day 1 pre-dose FeNO levels ranging from 33 to 118 ppb recorded levels less than 25 ppb by Day 10.
Part 3 involved the administration of a single dose regimen (4 mg BID), to subjects (17 active:6 placebo) with moderate to severe asthma treated with background ISC/LABA therapy, over a 10-day period. Blood samples were collected to enable the measurement of KN-002 concentrations in plasma. The resultant data was used to determine the pharmacokinetic parameters at Day 10 representing the Day on which the final dose was received.

[5] = biological target: JAK1 (Homo sapiens, UniProt P23458); conditions: cited from earlier work
Sequence of JAK1 (P23458 whole entry): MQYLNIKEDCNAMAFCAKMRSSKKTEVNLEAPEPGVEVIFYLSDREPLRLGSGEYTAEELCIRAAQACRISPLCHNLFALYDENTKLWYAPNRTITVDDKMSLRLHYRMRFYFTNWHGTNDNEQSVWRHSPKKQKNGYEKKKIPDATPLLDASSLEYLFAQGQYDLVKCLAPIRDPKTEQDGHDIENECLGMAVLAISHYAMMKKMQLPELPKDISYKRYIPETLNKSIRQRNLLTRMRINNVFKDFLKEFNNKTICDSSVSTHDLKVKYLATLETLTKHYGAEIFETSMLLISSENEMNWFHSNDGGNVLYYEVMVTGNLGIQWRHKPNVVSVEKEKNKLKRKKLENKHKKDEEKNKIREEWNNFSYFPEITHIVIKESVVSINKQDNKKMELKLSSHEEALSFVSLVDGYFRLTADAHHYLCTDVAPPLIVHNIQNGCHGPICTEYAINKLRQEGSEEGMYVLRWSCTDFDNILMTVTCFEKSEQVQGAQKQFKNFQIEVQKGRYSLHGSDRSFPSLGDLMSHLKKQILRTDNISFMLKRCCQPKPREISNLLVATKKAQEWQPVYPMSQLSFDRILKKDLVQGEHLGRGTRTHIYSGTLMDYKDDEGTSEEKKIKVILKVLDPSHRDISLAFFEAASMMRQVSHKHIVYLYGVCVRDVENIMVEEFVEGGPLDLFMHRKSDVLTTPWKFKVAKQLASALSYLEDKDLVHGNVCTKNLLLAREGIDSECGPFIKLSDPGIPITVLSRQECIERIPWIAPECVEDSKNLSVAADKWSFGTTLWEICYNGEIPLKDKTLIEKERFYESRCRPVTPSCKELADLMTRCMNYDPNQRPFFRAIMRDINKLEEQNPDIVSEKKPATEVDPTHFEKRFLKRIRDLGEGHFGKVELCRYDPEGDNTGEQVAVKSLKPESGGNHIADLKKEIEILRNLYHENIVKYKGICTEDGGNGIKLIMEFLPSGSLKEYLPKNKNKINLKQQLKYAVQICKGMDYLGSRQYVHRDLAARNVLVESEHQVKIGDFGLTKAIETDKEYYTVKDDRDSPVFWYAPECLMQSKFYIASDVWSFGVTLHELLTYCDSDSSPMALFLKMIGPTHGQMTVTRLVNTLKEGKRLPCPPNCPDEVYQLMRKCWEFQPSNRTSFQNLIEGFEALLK

## Cn1c(=O)n([C@H]2CCCN(C(=O)CC#N)C2)c2nc(-c3cnn4ccccc34)ccc21 [Compound I, (S)-3-(3-(1-methyl-2-oxo-5-(pyrazolo[1,5-a]pyridine-3-yl)-1H-imidazo[4,5-b]pyridine-3(2H)-yl)piperidin-1-yl)-3-oxopropanenitrile]
[1]; 13-week inhalation, highest dose
  NOAEL at 13 weeks: 11.9 mg/kg/day
[1]; 1.3 mg/kg/day
  AUC(0-t): 0.339 µg·h/mL
[1]; 4 mg/kg/day
  AUC(0-t): 0.85 µg·h/mL
[1]; 12 mg/kg/day
  AUC(0-t): 2.06 µg·h/mL
[2]; 1.3 mg/kg/day
  AUC0-24: 0.197 µg·h/mL
[2]; 4 mg/kg/day
  AUC0-24: 0.738 µg·h/mL
[2]; 12 mg/kg/day
  AUC0-24: 1.95 µg·h/mL
[2]; target delivered dose 1.3 mg/kg/day (low dose)
  MMAD: 1.9 μm
[2]; target delivered dose 4.0 mg/kg/day (mid dose)
  MMAD: 2.0 μm
[2]; target delivered dose 12.0 mg/kg/day (high dose)
  MMAD: 2.1 μm
[3]; 0.2 mg (n = 6)
  Severe/serious TEAE, n (%): 0
  Subjects with TEAE n, (%): 0
  TEAE leading to discontinuation: 0
[3]; 0.6 mg (n = 7)
  Severe/serious TEAE, n (%): 0
  Subjects with TEAE n, (%): 2 (29%)
  TEAE leading to discontinuation: 1
[3]; 2.0 mg (n = 6)
  Severe/serious TEAE, n (%): 0
  Subjects with TEAE n, (%): 2 (33%)
  TEAE leading to discontinuation: 0
[3]; 4.0 mg (n = 6)
  Severe/serious TEAE, n (%): 0
  Subjects with TEAE n, (%): 0
  TEAE leading to discontinuation: 0
[3]; 6.0 mg (n = 6)
  Severe/serious TEAE, n (%): 0
  Subjects with TEAE n, (%): 0
  TEAE leading to discontinuation: 0
[3]; 12.0 mg (n = 6)
  Severe/serious TEAE, n (%): 0
  Subjects with TEAE n, (%): 0
  TEAE leading to discontinuation: 0
[3]; phase 1 clinical trial
  Changes in cardiovascular endpoints (ECG and vital signs): No treatment-related clinically relevant changes
  Severe or serious adverse events: No severe or serious adverse events were observed
[3]; phase 1 clinical trial, per investigator
  Changes in hematology, biochemistry or urinalysis parameters including those influenced by JAK inhibition: No clinically relevant changes
[4]; Day 10 + 3 hrs
  Mean Placebo-Corrected % Change from Day 1 Pre-Dose or from Patient's Baseline (FeNO): −37%
[4]; Day 10 + 6 hrs
  Mean Placebo-Corrected % Change from Day 1 Pre-Dose or from Patient's Baseline (FeNO): −43%
[4]; Day 10 + 12 hrs
  Mean Placebo-Corrected % Change from Day 1 Pre-Dose or from Patient's Baseline (FeNO): −47%
[4]; Day 10 mean
  Mean Placebo-Corrected % Change from Day 1 Pre-Dose or from Patient's Baseline (FeNO): −43%
[4]; Day 10 pre-dose
  Mean Placebo-Corrected % Change from Day 1 Pre-Dose or from Patient's Baseline (FeNO): −44%
[4]; ITT
  % subjects achieving FeNO level <25 ppb on Day 10: 59%
[4]; 4 mg BID, ITT (n = 17), Day 10 + 3 hours
  Mean placebo-corrected % FeNO reduction from Day 1 pre-dose: −13.7%
[4]; 4 mg BID, ITT (n = 17), Day 10 + 6 hours
  Mean placebo-corrected % FeNO reduction from Day 1 pre-dose: −24.0%
[4]; 4 mg BID, ITT (n = 17), Day 10 + 12 hours
  Mean placebo-corrected % FeNO reduction from Day 1 pre-dose: −36.3%
[4]; 4 mg BID, ITT (n = 17), Day 10 mean
  Mean placebo-corrected % FeNO reduction from Day 1 pre-dose: −24.2%
[4]; 4 mg BID, ITT (n = 17), Day 10 pre-dose
  Mean placebo-corrected % FeNO reduction from Day 1 pre-dose: −22.9%
[4]; PP (excludes Day 1 pre-dose FeNO <30 ppb)
  % subjects achieving FeNO level <25 ppb on Day 10: 52%
[4]; 4 mg BID, PP (n = 15, excludes Day 1 pre-dose FeNO <30 ppb), Day 10 + 3 hours
  Mean placebo-corrected % FeNO reduction from Day 1 pre-dose: −24.8%
[4]; 4 mg BID, PP (n = 15, excludes Day 1 pre-dose FeNO <30 ppb), Day 10 + 6 hours
  Mean placebo-corrected % FeNO reduction from Day 1 pre-dose: −33.3%
[4]; 4 mg BID, PP (n = 15, excludes Day 1 pre-dose FeNO <30 ppb), Day 10 + 12 hours
  Mean placebo-corrected % FeNO reduction from Day 1 pre-dose: −37.0%
[4]; 4 mg BID, PP (n = 15, excludes Day 1 pre-dose FeNO <30 ppb), Day 10 mean
  Mean placebo-corrected % FeNO reduction from Day 1 pre-dose: −31.9%
[4]; 4 mg BID, PP (n = 15, excludes Day 1 pre-dose FeNO <30 ppb), Day 10 pre-dose
  Mean placebo-corrected % FeNO reduction from Day 1 pre-dose: −32.7%
[4]; 4 mg BID, subjects with Day 1 pre-dose FeNO levels between 33 and 280 ppb
  FeNO reductions by Day 10: greater than 20%
[4]; 4 mg BID, subjects with Day 1 pre-dose FeNO levels ranging from 33 to 118 ppb
  FeNO levels by Day 10: less than 25 ppb
[4]; Blood eosinophil cut-off ≥0.15 × 10^9/L (n = 16), Day 10 + 3 hours
  Mean placebo-corrected change in FeNO from Day 1 pre-dose, blood eosinophil subgroup: −26
[4]; Blood eosinophil cut-off ≥0.15 × 10^9/L (n = 16), Day 10 + 6 hours
  Mean placebo-corrected change in FeNO from Day 1 pre-dose, blood eosinophil subgroup: −35
[4]; Blood eosinophil cut-off ≥0.15 × 10^9/L (n = 16), Day 10 + 12 hours
  Mean placebo-corrected change in FeNO from Day 1 pre-dose, blood eosinophil subgroup: −52
[4]; Blood eosinophil cut-off ≥0.15 × 10^9/L (n = 16), Day 10 mean
  Mean placebo-corrected change in FeNO from Day 1 pre-dose, blood eosinophil subgroup: −37
[4]; Blood eosinophil cut-off ≥0.15 × 10^9/L (n = 16), Day 10 pre-dose
  Mean placebo-corrected change in FeNO from Day 1 pre-dose, blood eosinophil subgroup: −34
[4]; Blood eosinophil cut-off ≥0.3 × 10^9/L (n = 11), Day 10 + 3 hours
  Mean placebo-corrected change in FeNO from Day 1 pre-dose, blood eosinophil subgroup: −44
[4]; Blood eosinophil cut-off ≥0.3 × 10^9/L (n = 11), Day 10 + 6 hours
  Mean placebo-corrected change in FeNO from Day 1 pre-dose, blood eosinophil subgroup: −54
[4]; Blood eosinophil cut-off ≥0.3 × 10^9/L (n = 11), Day 10 + 12 hours
  Mean placebo-corrected change in FeNO from Day 1 pre-dose, blood eosinophil subgroup: −75
[4]; Blood eosinophil cut-off ≥0.3 × 10^9/L (n = 11), Day 10 mean
  Mean placebo-corrected change in FeNO from Day 1 pre-dose, blood eosinophil subgroup: −57
[4]; Blood eosinophil cut-off ≥0.3 × 10^9/L (n = 11), Day 10 pre-dose
  Mean placebo-corrected change in FeNO from Day 1 pre-dose, blood eosinophil subgroup: −53
[5]
  Inhibition of JAK1: potent inhibitor
